Measurements published in patent US20240139192A1, “METHODS AND COMPOSITIONS COMPRISING A BRAF INHIBITOR AND A MEK INHIBITOR” (Hoffmann-La Roche Inc., priority 2021, published 2024).

How the values were obtained:
[1] = system: P-ERK in A375 NRAS Q61K cells; assay: Western Blot analysis of phosphorylated ERK in A375 NRAS Q61K cells; format: cell-based; details: 1 h, alone or with 10 nM Cobimetinib, compared with Encorafenib or Encorafenib/Cobimetinib (FIG. 1)
Protocol: Cell lines were obtained from ATCC, maintained in humidified incubators at 5% CO2 in standard conditions and passaged twice a week.
The A375 cell line presenting BRAF V600E and the RAF dimer inducing mutation NRAS Q61K was utilized to model a mechanism of resistance to BRAFi and BRAFi/MEKi combinations.

[2] = target: BRAF (Homo sapiens, UniProt P15056); assay: biochemical
Sequence of BRAF (P15056 whole entry): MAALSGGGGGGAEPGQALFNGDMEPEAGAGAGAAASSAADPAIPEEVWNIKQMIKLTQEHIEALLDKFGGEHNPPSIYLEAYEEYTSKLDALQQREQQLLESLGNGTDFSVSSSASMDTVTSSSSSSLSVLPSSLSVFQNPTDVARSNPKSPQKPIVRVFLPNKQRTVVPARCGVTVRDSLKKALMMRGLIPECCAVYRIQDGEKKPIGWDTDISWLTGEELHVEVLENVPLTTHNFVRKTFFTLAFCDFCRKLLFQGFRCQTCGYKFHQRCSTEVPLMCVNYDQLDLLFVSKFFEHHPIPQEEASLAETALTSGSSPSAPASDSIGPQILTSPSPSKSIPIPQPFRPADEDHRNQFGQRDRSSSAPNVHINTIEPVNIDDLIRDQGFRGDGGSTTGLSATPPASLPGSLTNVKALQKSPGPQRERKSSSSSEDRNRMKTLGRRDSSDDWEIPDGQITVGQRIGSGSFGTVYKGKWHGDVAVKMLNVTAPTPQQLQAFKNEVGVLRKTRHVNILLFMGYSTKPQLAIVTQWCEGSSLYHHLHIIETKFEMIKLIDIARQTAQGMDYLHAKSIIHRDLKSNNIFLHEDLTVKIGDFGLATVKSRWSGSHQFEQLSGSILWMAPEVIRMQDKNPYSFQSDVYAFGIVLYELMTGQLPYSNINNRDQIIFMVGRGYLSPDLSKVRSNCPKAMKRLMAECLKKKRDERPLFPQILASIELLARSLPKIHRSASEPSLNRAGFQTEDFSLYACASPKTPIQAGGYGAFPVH

[3] = target: CRAF (Homo sapiens, UniProt P04049); assay: biochemical
Sequence of CRAF (P04049 whole entry): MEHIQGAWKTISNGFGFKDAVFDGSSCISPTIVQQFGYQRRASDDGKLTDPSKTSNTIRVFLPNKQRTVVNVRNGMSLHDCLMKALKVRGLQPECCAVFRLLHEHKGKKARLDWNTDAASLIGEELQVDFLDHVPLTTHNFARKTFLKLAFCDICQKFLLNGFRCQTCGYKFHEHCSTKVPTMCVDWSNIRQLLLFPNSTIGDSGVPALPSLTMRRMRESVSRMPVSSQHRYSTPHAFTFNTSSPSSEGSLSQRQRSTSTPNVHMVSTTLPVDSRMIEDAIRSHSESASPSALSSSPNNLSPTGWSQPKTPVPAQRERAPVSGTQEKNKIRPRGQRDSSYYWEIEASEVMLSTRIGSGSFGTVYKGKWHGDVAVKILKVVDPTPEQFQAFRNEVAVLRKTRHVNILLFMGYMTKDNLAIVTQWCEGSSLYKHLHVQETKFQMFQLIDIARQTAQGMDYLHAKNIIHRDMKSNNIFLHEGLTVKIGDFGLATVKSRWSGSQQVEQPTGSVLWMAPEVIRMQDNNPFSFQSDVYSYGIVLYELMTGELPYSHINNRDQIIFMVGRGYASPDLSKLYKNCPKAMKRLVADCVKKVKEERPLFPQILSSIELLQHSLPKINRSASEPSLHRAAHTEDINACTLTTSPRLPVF

[4] = target: C-terminal Src kinase (CSK) (Homo sapiens, UniProt P41240); assay: biochemical
[5] = target: BRAF V600E (Homo sapiens, UniProt P15056, V600E); assay: biochemical
Sequence of BRAF V600E (P15056 whole entry V600E): as the sequence (P15056 whole entry) above, with V600E counted along it

[6] = system: P-ERK in A375 cells (V600E mutated BRAF); assay: HTRF assay for P-ERK determination in A375 cells; format: cell-based; details: Homo sapiens, A-375; A375 cell line, 1 hour drug incubation; read-out: pERK IC50 A375
From the text: DMEM no-phenol red medium supplemented with L-glutamine was purchased from (Thermo Fisher Scientific). Fetal bovine serum (FBS) was purchased from VWR. […] 384-well microplates were purchased from Greiner Bio-One, 384-well, (With Lid, HiBase, Low volume cat 784-080).
ERK 1,2 phosphorylation (terminal member of the phosphorylation cascade of the MAPK pathway) is hereafter reported as main readout for the activation status of the MAPK pathway.
In order to allow proper data normalization control wells without drug treatment reported are always included in each plate (according to manufacturer's instruction):
The plate is then centrifuged at 300 rcf for 30 second, sealed to prevent evaporation and incubated overnight in the dark at room temperature.
The plate is then analyzed and fluorescence emission value collected through a Pherastast FSX (BMG Labtech) apparatus at […].
Data are normalized considering the average of the ratio (blank subtracted) derived by DMSO only treated cells as 100% and by considering the average of the ratio (blank subtracted) derived by 10 μM dabrafenib treated cells as 0%. Mean of the normalized points are fitted with sigmoidal curve and IC50 determined. […] Kd is the dissociation constant in the biochemical experiments.

[7] = target: lymphocyte-specific tyrosine protein kinase (LCK) (Homo sapiens, UniProt P06239); assay: biochemical
Sequence of lymphocyte-specific tyrosine protein kinase (LCK) (P06239 whole entry): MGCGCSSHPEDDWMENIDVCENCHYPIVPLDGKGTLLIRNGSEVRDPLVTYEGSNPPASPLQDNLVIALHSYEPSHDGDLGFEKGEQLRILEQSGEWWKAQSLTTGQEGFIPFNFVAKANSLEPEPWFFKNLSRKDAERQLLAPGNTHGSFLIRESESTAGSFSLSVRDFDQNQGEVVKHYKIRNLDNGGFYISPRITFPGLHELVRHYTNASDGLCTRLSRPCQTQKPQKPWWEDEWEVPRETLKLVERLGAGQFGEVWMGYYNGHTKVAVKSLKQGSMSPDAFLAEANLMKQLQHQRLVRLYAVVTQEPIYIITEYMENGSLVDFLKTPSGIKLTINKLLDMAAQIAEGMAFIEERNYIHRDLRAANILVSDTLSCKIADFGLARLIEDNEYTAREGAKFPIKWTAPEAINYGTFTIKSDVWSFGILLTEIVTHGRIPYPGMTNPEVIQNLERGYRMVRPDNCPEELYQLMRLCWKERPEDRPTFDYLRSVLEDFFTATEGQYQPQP

| Kd [2] [nM] | Kd [3] [nM] | Kd [4] [nM] | Kd [5] [nM] | IC50 [6] [nM] | Kd [7] [nM] | Compound | P-ERK inhibition (Western Blot) [1] |
| --- | --- | --- | --- | --- | --- | --- | --- |
| 0.6 | 1.7 | 23300 | 1.2 | 6.9 | 40000 | Cn1cnc2ccc(Oc3c(F)ccc(NS(=O)(=O)N4CC[C@@H](F)C4)c3C#N)cc2c1=O [(Ia), (3R)-N-[2-cyano-4-fluoro-3-(3-methyl-4-oxo-quinazolin-6-yl)oxy-phenyl]-3-fluoro-pyrrolidine-1-sulfonamide] | superior P-ERK inhibition compared to Encorafenib |
| 1.3 | 1.2 | 9160 | 0.9 | 10.6 | 20100 | Cn1cnc2ccc(Oc3c(F)ccc(NS(=O)(=O)N4CC[C@H](F)C4)c3C#N)cc2c1=O [(Ib), (3S)-N-[2-cyano-4-fluoro-3-(3-methyl-4-oxo-quinazolin-6-yl)oxy-phenyl]-3-fluoro-pyrrolidine-1-sulfonamide] | – |
